Measured values: ChEMBL document CHEMBL5104161, “Novel analgesic/anti-inflammatory agents: 1,5-Diarylpyrrole nitrooxyethyl sulfides and related compounds as Cyclooxygenase-2 inhibitors containing a nitric oxide donor moiety endowed with vasorelaxant properties” (Eur J Med Chem, 2022)

Assays:
J774 = experiment: Ratio IC50 for inhibition of COX1 in mouse J774 cells over inhibition of COX2 in mouse J774 cells; assay type: cell-based
Aorta = experiment: Vasorelaxant activity in Sprague-Dawley rat aortic rings assessed as reduction in L-phenylephrine-induced contractions at 0.01 to 100 uM relative to control; assay type: functional; details: dose 0.01-100 µM
[1] = Half-life in mouse liver microsomes at 1 uM preincubated for 10 mins and measured up to 60 mins by LC-MS/MS analysis; assay type: ADME, Microsome
[2] = Intrinsic clearance in mouse liver microsomes at 1 uM preincubated for 10 mins and measured up to 60 mins by LC-MS/MS analysis; assay type: ADME, Microsome; details: read-out: CLH
[3] = Half-life in human liver microsomes at 1 uM preincubated for 10 mins and measured up to 60 mins by LC-MS/MS analysis; assay type: ADME, Microsome
[4] = molecular target: T1, Prostaglandin G/H synthase 2 (Mus musculus, UniProt Q05769); experiment: Inhibition of COX2 in LPS-stimulated mouse J774 cells assessed as inhibition of PGE2 production and measured after 24 hrs by enzyme immuno-assay (EIA); assay type: cell-based
T1 sequence (Q05769 whole entry): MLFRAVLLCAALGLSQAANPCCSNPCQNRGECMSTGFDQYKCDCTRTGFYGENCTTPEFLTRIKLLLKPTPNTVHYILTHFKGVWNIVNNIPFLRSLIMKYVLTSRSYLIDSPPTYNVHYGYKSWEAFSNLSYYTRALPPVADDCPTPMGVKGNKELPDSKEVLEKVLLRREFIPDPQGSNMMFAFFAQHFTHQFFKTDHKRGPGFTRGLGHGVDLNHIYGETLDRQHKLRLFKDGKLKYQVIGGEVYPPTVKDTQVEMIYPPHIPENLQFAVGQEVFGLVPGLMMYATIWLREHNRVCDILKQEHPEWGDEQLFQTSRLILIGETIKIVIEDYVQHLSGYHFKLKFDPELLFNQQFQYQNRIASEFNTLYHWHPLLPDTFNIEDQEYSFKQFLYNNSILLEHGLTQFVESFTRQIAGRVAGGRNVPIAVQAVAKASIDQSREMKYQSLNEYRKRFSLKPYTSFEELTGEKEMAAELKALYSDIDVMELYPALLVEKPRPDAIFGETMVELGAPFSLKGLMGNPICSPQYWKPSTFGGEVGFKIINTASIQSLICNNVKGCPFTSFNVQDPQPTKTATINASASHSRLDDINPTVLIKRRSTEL

[5] = molecular target: T2, Prostaglandin G/H synthase 1 (Mus musculus, UniProt P22437); experiment: Inhibition of COX1 in mouse J774 cells using arachidonic acid as substrate preincubated for 15 mins followed substrate addition and assessed as inhibition of PGE2 production after 30 mins by enzyme immuno-assay (EIA); assay type: cell-based
T2 sequence (P22437 whole entry): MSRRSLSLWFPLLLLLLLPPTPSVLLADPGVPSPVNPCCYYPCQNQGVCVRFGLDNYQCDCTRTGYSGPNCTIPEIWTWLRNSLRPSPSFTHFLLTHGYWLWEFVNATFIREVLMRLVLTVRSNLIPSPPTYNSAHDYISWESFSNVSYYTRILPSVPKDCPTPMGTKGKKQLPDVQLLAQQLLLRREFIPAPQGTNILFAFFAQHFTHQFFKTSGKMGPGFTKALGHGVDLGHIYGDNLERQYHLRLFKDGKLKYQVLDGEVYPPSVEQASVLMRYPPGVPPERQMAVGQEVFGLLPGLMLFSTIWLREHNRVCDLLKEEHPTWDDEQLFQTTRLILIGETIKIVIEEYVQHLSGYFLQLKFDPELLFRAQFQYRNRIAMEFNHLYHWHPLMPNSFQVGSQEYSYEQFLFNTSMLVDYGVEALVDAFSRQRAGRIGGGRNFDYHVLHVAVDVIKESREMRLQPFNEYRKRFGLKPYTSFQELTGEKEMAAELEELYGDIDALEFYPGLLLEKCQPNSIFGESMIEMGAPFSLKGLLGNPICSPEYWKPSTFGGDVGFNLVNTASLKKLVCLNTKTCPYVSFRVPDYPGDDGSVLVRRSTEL

[6] = Intrinsic clearance in human liver microsomes at 1 uM preincubated for 10 mins and measured up to 60 mins by LC-MS/MS analysis; assay type: ADME, Microsome; details: read-out: CLH
Rattus norvegicus [7] = experiment: Anti-hyperalgesic activity in carrageenan-induced hyperalgesia male Sprague-Dawley rat model assessed as paw withdrawal threshold at 20 mg/kg, po measured 15 mins after compound administration by paw pressure test; assay type: functional; details: 0.25 h
Mus musculus [8] = experiment: Analgesic activity against acetic acid-induced male CD1 albino mouse model assessed as number of writhes at 10 mg/kg, po measured after 30 mins by abdominal constriction test; assay type: functional; details: 0.5 h
Rattus norvegicus [9] = experiment: Anti-hyperalgesic activity in carrageenan-induced hyperalgesia male Sprague-Dawley rat model assessed as paw withdrawal threshold at 20 mg/kg, po measured 30 mins after compound administration by paw pressure test; assay type: functional; details: 0.5 h
Rattus norvegicus [10] = experiment: Anti-hyperalgesic activity in carrageenan-induced hyperalgesia male Sprague-Dawley rat model assessed as paw withdrawal threshold at 20 mg/kg, po measured 60 mins after compound administration by paw pressure test; assay type: functional; details: 1 h
Rattus norvegicus [11] = experiment: Anti-hyperalgesic activity in carrageenan-induced hyperalgesia male Sprague-Dawley rat model assessed as paw withdrawal threshold at 20 mg/kg, po measured 45 mins after compound administration by paw pressure test; assay type: functional; details: 0.75 h
Rattus norvegicus [12] = experiment: Anti-hyperalgesic activity in carrageenan-induced hyperalgesia male Sprague-Dawley rat model assessed as paw edema volume at 20 mg/kg, po measured 30 mins after compound administration by plethysmometer analysis; assay type: functional; details: 0.5 h
Mus musculus [13] = experiment: Analgesic activity against acetic acid-induced male CD1 albino mouse model assessed as number of writhes at 20 mg/kg, po measured after 30 mins by abdominal constriction test; assay type: functional; details: 0.5 h
Mus musculus [14] = experiment: Analgesic activity against acetic acid-induced male CD1 albino mouse model assessed as number of writhes at 30 mg/kg, po measured after 30 mins by abdominal constriction test; assay type: functional; details: 0.5 h
Rattus norvegicus [15] = experiment: Anti-hyperalgesic activity in carrageenan-induced hyperalgesia male Sprague-Dawley rat model assessed as paw withdrawal threshold at 10 mg/kg, po measured 15 mins after compound administration by paw pressure test; assay type: functional; details: 0.25 h
Rattus norvegicus [16] = experiment: Anti-hyperalgesic activity in carrageenan-induced hyperalgesia male Sprague-Dawley rat model assessed as paw withdrawal threshold at 10 mg/kg, po measured 30 mins after compound administration by paw pressure test; assay type: functional; details: 0.5 h
Rattus norvegicus [17] = experiment: Anti-hyperalgesic activity in carrageenan-induced hyperalgesia male Sprague-Dawley rat model assessed as paw edema volume at 10 mg/kg, po measured 30 mins after compound administration by plethysmometer analysis; assay type: functional; details: 0.5 h
Rattus norvegicus [18] = experiment: Anti-hyperalgesic activity in carrageenan-induced hyperalgesia male Sprague-Dawley rat model assessed as paw withdrawal threshold at 10 mg/kg, po measured 60 mins after compound administration by paw pressure test; assay type: functional; details: 1 h
Rattus norvegicus [19] = experiment: Anti-hyperalgesic activity in carrageenan-induced hyperalgesia male Sprague-Dawley rat model assessed as paw withdrawal threshold at 10 mg/kg, po measured 45 mins after compound administration by paw pressure test; assay type: functional; details: 0.75 h

| Compound | Ratio IC50 (J774) | Efficacy (Aorta) [%] | IC50 [4] [nM] | IC50 [5] [nM] | Activity (Rattus norvegicus [7]) [g] | Activity (Mus musculus [8]) | Activity (Rattus norvegicus [9]) [g] | Activity (Rattus norvegicus [10]) [g] | Activity (Rattus norvegicus [11]) [g] | Activity (Rattus norvegicus [12]) [mL] | Activity (Mus musculus [13]) | Activity (Mus musculus [14]) | further results |
| --- | --- | --- | --- | --- | --- | --- | --- | --- | --- | --- | --- | --- | --- |
| Cc1c(CCOCCO[N+](=O)[O-])cc(-c2ccc(S(C)(=O)=O)cc2)n1-c1ccc(F)cc1 | > 714 | 59 | – | – | – | – | – | – | – | – | – | – | – |
| Cc1c(CC[S+]([O-])CCO)cc(-c2ccc(S(C)(=O)=O)cc2)n1-c1ccc(F)cc1 (centres undefined) | > 11 | – | 916 | > 10000 | – | – | – | – | – | – | – | – | half-life at 1 µM [1]: 142 min; microsomal CLint at 1 µM [2]: 9.7 µL/min/mg; half-life at 1 µM [3]: 470 min; microsomal CLint at 1 µM [6]: 3.2 µL/min/mg |
| Cc1c(CCSCCO)cc(-c2ccc(S(C)(=O)=O)cc2)n1-c1ccc(F)c(F)c1 | > 588 | – | 17 | > 10000 | 37.8 | 23.8 | 46.6 | 39.6 | 45.3 | 2.09 | 19.6 | 17.4 | – |
| Cc1c(CCSCCO[N+](=O)[O-])cc(-c2ccc(S(C)(=O)=O)cc2)n1-c1ccccc1 | > 345 | 59 | 29 | > 10000 | – | – | – | – | – | – | – | – | – |
| Cc1c(CCSCCO[N+](=O)[O-])cc(-c2ccc(S(C)(=O)=O)cc2)n1-c1ccc(F)c(F)c1 | > 625 | 59 | 16 | > 10000 | 40.6 | 22.5 | 46.1 | 37.1 | 45.7 | 2.31 | 19 | 20.7 | – |
| Cc1c(CC[S+]([O-])CCO)cc(-c2ccc(S(C)(=O)=O)cc2)n1-c1ccccc1 (centres undefined) | > 31.2 | – | 320 | > 10000 | – | – | – | – | – | – | – | – | – |
| Cc1c(CC[S+]([O-])CCO[N+](=O)[O-])cc(-c2ccc(S(C)(=O)=O)cc2)n1-c1ccccc1 (centres undefined) | > 135 | 59 | 74 | > 10000 | – | – | – | – | – | – | – | – | – |
| Cc1c(CCOCCO)cc(-c2ccc(S(C)(=O)=O)cc2)n1-c1ccc(F)c(F)c1 | > 23.8 | – | – | – | – | – | – | – | – | – | – | – | – |
| Cc1c(CC[S+]([O-])CCO)cc(-c2ccc(S(C)(=O)=O)cc2)n1-c1ccc(F)c(F)c1 (centres undefined) | > 71.4 | – | 140 | > 10000 | – | – | – | – | – | – | – | – | – |
| Cc1ccc(-c2cc(C(F)(F)F)nn2-c2ccc(S(N)(=O)=O)cc2)cc1 [CELECOXIB] | – | – | – | – | – | – | – | – | – | – | – | – | Activity (Rattus norvegicus [15]): 48.5 g; Activity (Rattus norvegicus [16]): 51.3 g; Activity (Rattus norvegicus [17]): 1.56 mL; Activity (Rattus norvegicus [18]): 46.7 g; Activity (Rattus norvegicus [19]): 54 g |
| Cc1c(CC[S+]([O-])CCO[N+](=O)[O-])cc(-c2ccc(S(C)(=O)=O)cc2)n1-c1ccc(F)cc1 (centres undefined) | > 2000 | – | 5 | > 10000 | 42.3 | 29.2 | 47.2 | 36.3 | 46.1 | 2.25 | 21.8 | 18 | half-life at 1 µM [1]: 35.1 min; microsomal CLint at 1 µM [2]: 40.3 µL/min/mg; half-life at 1 µM [3]: 34.7 min; microsomal CLint at 1 µM [6]: 39.9 µL/min/mg |
| Cc1c(CCSCCO)cc(-c2ccc(S(C)(=O)=O)cc2)n1-c1ccccc1 | > 400 | – | 25 | > 10000 | – | – | – | – | – | – | – | – | – |
| Cc1c(CC[S+]([O-])CCO[N+](=O)[O-])cc(-c2ccc(S(C)(=O)=O)cc2)n1-c1ccc(F)c(F)c1 (centres undefined) | > 3330 | 59 | 3 | > 10000 | 39.8 | 25.9 | 48.2 | 38.3 | 44.2 | 2.2 | 20.1 | 21.3 | – |
| CCOc1ccc2ccc(=O)oc2c1 | – | – | – | – | – | – | – | – | – | – | – | – | half-life at 1 µM [1]: 4.7 min; microsomal CLint at 1 µM [2]: 297 µL/min/mg; half-life at 1 µM [3]: 12.6 min; microsomal CLint at 1 µM [6]: 113 µL/min/mg |
| Cc1c(CCOCCO[N+](=O)[O-])cc(-c2ccc(S(C)(=O)=O)cc2)n1-c1ccc(F)c(F)c1 | > 10.9 | – | – | – | – | – | – | – | – | – | – | – | – |
| Cc1c(CCOCCO[N+](=O)[O-])cc(-c2ccc(S(C)(=O)=O)cc2)n1-c1ccccc1 | > 588 | – | – | – | – | – | – | – | – | – | – | – | – |
| Cc1c(CCSCCO[N+](=O)[O-])cc(-c2ccc(S(C)(=O)=O)cc2)n1-c1ccc(F)cc1 | > 1110 | 59 | 9 | > 10000 | 39.9 | 24.2 | 45.9 | 37.5 | 44.7 | 2.18 | 20.5 | 20.6 | half-life at 1 µM [1]: 22.8 min; microsomal CLint at 1 µM [2]: 61.2 µL/min/mg; half-life at 1 µM [3]: 10.5 min; microsomal CLint at 1 µM [6]: 132 µL/min/mg |
| Cc1c(CCSCCO)cc(-c2ccc(S(C)(=O)=O)cc2)n1-c1ccc(F)cc1 | > 1250 | – | 8 | > 10000 | 41.5 | 26.5 | 48.2 | 38.2 | 48.7 | 2.22 | 23.1 | 21.5 | half-life at 1 µM [1]: 19.2 min; microsomal CLint at 1 µM [2]: 73.2 µL/min/mg; half-life at 1 µM [3]: 36.2 min; microsomal CLint at 1 µM [6]: 39.2 µL/min/mg |
